Results taken from PubChem BioAssay AID248 (DTP/NCI, 2004).
Values joined by “and” are separate entries in the source; they are usually repeats but may differ in a detail not shown here. Identical values can stand only once. Toxic doses and inconclusive results are not listed. Rule as the data show it: active = T/C of 150% or more; inactive = T/C below 125%.

Tested on: L1210 leukemia ip in BDF1 mice, survival T/C
Assay: NCI In Vivo Anticancer Drug Screen. Data for tumor model L1210 Leukemia (intraperitoneal) in B6D2F1 (BDF1) mice
Settings: endpoint: mean survival time, higher = longer survival
Outline: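 Tumor cells were implanted, animals were treated, and survival was followed. The result divides the treated measurement by the vehicle-control measurement.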

[1] = dose: 100.0 mg/kg/injection, schedule: Q04DX003 (ip), vehicle: Klucel (hydroxypropylcellulose) (HPC)
[2] = dose: 200.0 mg/kg/injection, schedule: Q04DX003 (ip), vehicle: Klucel (hydroxypropylcellulose) (HPC)
[3] = dose: 400.0 mg/kg/injection, schedule: Q04DX003 (ip), vehicle: Klucel (hydroxypropylcellulose) (HPC)
[4] = dose: 50.0 mg/kg/injection, schedule: Q01DX001 (ip), vehicle: saline
[5] = dose: 100.0 mg/kg/injection, schedule: Q01DX001 (ip), vehicle: saline
[6] = dose: 100.0 mg/kg/injection, schedule: Q01DX009 (ip), vehicle: Klucel (hydroxypropylcellulose) (HPC)
[7] = dose: 200.0 mg/kg/injection, schedule: Q01DX009 (ip), vehicle: Klucel (hydroxypropylcellulose) (HPC)
[8] = dose: 400.0 mg/kg/injection, schedule: Q01DX009 (ip), vehicle: Klucel (hydroxypropylcellulose) (HPC)
[9] = dose: 100.0 mg/kg/injection, schedule: Q04DX002 (ip), vehicle: Klucel (hydroxypropylcellulose) (HPC)
[10] = dose: 200.0 mg/kg/injection, schedule: Q04DX002 (ip), vehicle: Klucel (hydroxypropylcellulose) (HPC)
[11] = dose: 400.0 mg/kg/injection, schedule: Q04DX002 (ip), vehicle: Klucel (hydroxypropylcellulose) (HPC)
[12] = dose: 200.0 mg/kg/injection, schedule: Q01DX001 (ip), vehicle: saline
[13] = dose: 400.0 mg/kg/injection, schedule: Q01DX001 (ip), vehicle: saline
[14] = dose: 100.0 mg/kg/injection, schedule: Q01DX001 (ip), vehicle: saline with Tween-80
[15] = dose: 200.0 mg/kg/injection, schedule: Q01DX001 (ip), vehicle: saline with Tween-80
[16] = dose: 100.0 mg/kg/injection, schedule: Q04DX003 (ip), vehicle: saline with Tween-80
[17] = dose: 200.0 mg/kg/injection, schedule: Q04DX003 (ip), vehicle: saline with Tween-80
[18] = dose: 100.0 mg/kg/injection, schedule: Q01DX009 (ip), vehicle: saline with Tween-80

Measured: T/C

Cc1cc(N(CCCl)CCCl)ccc1N=Nc1ccccc1C(=O)O
inactive: dose: 3.1 mg/kg/injection, schedule: Q01DX Z (ip), vehicle: carboxymethylcellulose (CMC) 116 % of control | dose: 5.0 mg/kg/injection, schedule: Q01DX010 (ip), vehicle: saline 110 % of control and 111 % of control | dose: 10.0 mg/kg/injection, schedule: Q01DX010 (ip), vehicle: saline 119 % of control and 122 % of control | dose: 18.0 mg/kg/injection, schedule: Q01DX Z (ip), vehicle: carboxymethylcellulose (CMC) 122 % of control | dose: 20.0 mg/kg/injection, schedule: Q01DX010 (ip), vehicle: saline 121 % of control | dose: 25.0 mg/kg/injection, schedule: Q01DX Z (ip), vehicle: carboxymethylcellulose (CMC) 107 % of control | dose: 27.0 mg/kg/injection, schedule: Q01DX Z (ip), vehicle: carboxymethylcellulose (CMC) 114 % of control | dose: 40.0 mg/kg/injection, schedule: Q01DX010 (ip), vehicle: saline 88 % of control | dose: 40.0 mg/kg/injection, schedule: Q01DX Z (ip), vehicle: carboxymethylcellulose (CMC) 86 % of control

C[N+](C)(C)/N=C/c1ccccc1
inactive: dose: 12.5 mg/kg/injection, schedule: Q01DX009 (ip), vehicle: Klucel (hydroxypropylcellulose) (HPC) 97 % of control | dose: 25.0 mg/kg/injection, schedule: Q01DX009 (ip), vehicle: Klucel (hydroxypropylcellulose) (HPC) 103 % of control | dose: 50.0 mg/kg/injection, schedule: Q01DX009 (ip), vehicle: Klucel (hydroxypropylcellulose) (HPC) 93 % of control and 96 % of control

O=C(O)CCc1ccc([N+](=O)[O-])cc1Cl
inactive: [1] 96 % of control | [2] 101 % of control | [3] 101 % of control

O=CNc1cc2c3c(c1)CCCN3CCC2
inactive: dose: 12.5 mg/kg/injection, schedule: Q01DX001 (ip), vehicle: saline 102 % of control | dose: 25.0 mg/kg/injection, schedule: Q01DX001 (ip), vehicle: saline 108 % of control | dose: 25.0 mg/kg/injection, schedule: Q01DX009 (ip), vehicle: saline 105 % of control | [4] 107 % of control | dose: 50.0 mg/kg/injection, schedule: Q01DX009 (ip), vehicle: saline 106 % of control | [5] 100 % of control

Cc1ccc(NC(=O)Nc2cccc3ccccc23)cc1Cl
inactive: [6] 99 % of control | [1] 91 % of control | [7] 94 % of control | [2] 86 % of control | [8] 97 % of control | [3] 90 % of control

Cc1cc2ccccc2cc1C
inactive: dose: 25.0 mg/kg/injection, schedule: Q04DX002 (ip), vehicle: other 102 % of control | dose: 25.0 mg/kg/injection, schedule: Q04DX002 (ip), vehicle: saline with Tween-80 119 % of control | dose: 50.0 mg/kg/injection, schedule: Q04DX002 (ip), vehicle: saline with Tween-80 101 % of control | dose: 100.0 mg/kg/injection, schedule: Q04DX002 (ip), vehicle: other 94 % of control | dose: 100.0 mg/kg/injection, schedule: Q04DX002 (ip), vehicle: saline with Tween-80 111 % of control

COc1ccc(OC)c(NC(=O)Nc2cc(Cl)ccc2C)c1
inactive: [6] 89 % of control | [7] 93 % of control

O=C(c1ccc(Cl)cc1)c1nc2ccccc2[nH]1
inactive: [9] 95 % of control | [10] 95 % of control | [11] 103 % of control

Cn1c(=O)c2c(nc(OC3CCCCCC3)n2C)n(C)c1=O
inactive: dose: 50.0 mg/kg/injection, schedule: Q01DX001 (ip), vehicle: other 101 % of control | dose: 100.0 mg/kg/injection, schedule: Q01DX001 (ip), vehicle: other 93 % of control | dose: 200.0 mg/kg/injection, schedule: Q01DX001 (ip), vehicle: other 98 % of control

C/C=C(\C)C(=Nc1ccc(Cl)c(Cl)c1)N(C)C
inactive: dose: 222.0 mg/kg/injection, schedule: Q01DX Z (ip), vehicle: saline 102 % of control | dose: 333.0 mg/kg/injection, schedule: Q01DX Z (ip), vehicle: saline 100 % of control | dose: 500.0 mg/kg/injection, schedule: Q01DX Z (ip), vehicle: saline 118 % of control

CC(=O)c1c(OC(C)C(=O)O)ccc2ccccc12 (stereo not given)
inactive: [5] 98 % of control | [12] 101 % of control | [13] 107 % of control

CCOC(=O)CCCc1cccc(OC)c1OC
inactive: [14] 91 % of control | [15] 91 % of control | dose: 400.0 mg/kg/injection, schedule: Q01DX001 (ip), vehicle: saline with Tween-80 98 % of control

Nc1nc2nc(-c3ccccc3)[nH]c2c(=O)[nH]1
inactive: [1] 98 % of control | [2] 101 % of control | [3] 93 % of control

O=C(O)C1CCCCC1C(=O)Nc1ccc(Br)cc1 (stereo not given)
inactive: [9] 100 % of control | [10] 100 % of control | [11] 118 % of control

O=C(CCc1ccccc1)NC(=S)Nc1cc(C(F)(F)F)ccc1Cl
inactive: [6] 94 % of control | [7] 90 % of control | [8] 87 % of control

O=C(N/N=C\c1c(O)ccc2ccccc12)c1ccncc1
inactive: [1] 106 % of control | [2] 101 % of control | [3] 108 % of control

O=[N+]([O-])c1ccc(N/N=C/CCc2ccccc2O)c([N+](=O)[O-])c1
inactive: [4] 112 % of control | [5] 98 % of control | [12] 93 % of control | [13] 98 % of control

CC(C)(C)OC1C2C=CC1C1C2C2(Cl)C(Cl)=C(Cl)C1(Cl)C21OCCO1 (stereo not given)
inactive: [9] 97 % of control | [11] 110 % of control

CC(C)OCCCNC(=O)NS(=O)(=O)c1ccc(N)cc1
inactive: [16] 101 % of control | [17] 100 % of control | dose: 400.0 mg/kg/injection, schedule: Q04DX003 (ip), vehicle: saline with Tween-80 92 % of control

CCOC(=O)c1c(OC(C)=O)cc(C)nc1OC(C)=O
inactive: [5] 100 % of control | [12] 100 % of control | [13] 111 % of control

O=S1(=O)C(Cc2ccccc2)CCC1Cc1ccccc1 (stereo not given)
inactive: [1] 102 % of control | [2] 94 % of control | [3] 102 % of control

NC(=O)c1cc(C(N)=O)cc([N+](=O)[O-])c1
inactive: dose: 50.0 mg/kg/injection, schedule: Q01DX009 (ip), vehicle: saline with Tween-80 101 % of control | [18] 101 % of control | [16] 100 % of control | [17] 96 % of control

O=S(=O)(NCCNS(=O)(=O)c1ccccc1)c1ccccc1
inactive: [18] 96 % of control | dose: 200.0 mg/kg/injection, schedule: Q01DX009 (ip), vehicle: saline with Tween-80 94 % of control | dose: 400.0 mg/kg/injection, schedule: Q01DX009 (ip), vehicle: saline with Tween-80 95 % of control

CN(C)/C=N/NC(=O)c1ccncc1
inactive: dose: 100.0 mg/kg/injection, schedule: Q01DX009 (ip), vehicle: saline 94 % of control | dose: 100.0 mg/kg/injection, schedule: Q04DX003 (ip), vehicle: saline 88 % of control | dose: 200.0 mg/kg/injection, schedule: Q01DX009 (ip), vehicle: saline 97 % of control | dose: 200.0 mg/kg/injection, schedule: Q04DX003 (ip), vehicle: saline 100 % of control | dose: 400.0 mg/kg/injection, schedule: Q01DX009 (ip), vehicle: saline 108 % of control | dose: 400.0 mg/kg/injection, schedule: Q04DX003 (ip), vehicle: saline 96 % of control

NNc1nncc(=O)[nH]1
inactive: [14] 103 % of control | [15] 103 % of control

CCCCCCCCCCCCCCC1=NCCN1
inactive: dose: 5.0 mg/kg/injection, schedule: Q01DX009 (ip), vehicle: saline 98 % of control | dose: 10.0 mg/kg/injection, schedule: Q01DX001 (ip), vehicle: saline 94 % of control | dose: 10.0 mg/kg/injection, schedule: Q01DX009 (ip), vehicle: saline 104 % of control | dose: 10.0 mg/kg/injection, schedule: Q04DX003 (ip), vehicle: saline 92 % of control | dose: 20.0 mg/kg/injection, schedule: Q01DX001 (ip), vehicle: saline 103 % of control | dose: 20.0 mg/kg/injection, schedule: Q01DX009 (ip), vehicle: saline 106 % of control | dose: 20.0 mg/kg/injection, schedule: Q04DX003 (ip), vehicle: saline 101 % of control | dose: 40.0 mg/kg/injection, schedule: Q01DX001 (ip), vehicle: saline 98 % of control | dose: 40.0 mg/kg/injection, schedule: Q04DX003 (ip), vehicle: saline 92 % of control
